In assay [1] the target is T1, human GLP1R (Homo sapiens, UniProt P43220).
T1 construct: expressed in transfected cells; growth medium holds Blasticidin and Hygromycin
The assay is described as follows: cAMP activity assay at the GLP-1 receptor (GLP1R). The class given is cell-based. The method in brief:
(§1)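 Peptides serially diluted from DMSO (10 points) and added to frozen-stock cells bearing human GLP1R (10,000 cells/well) or GCGR (30,000 cells/well), 1 h at RT, dark. EC50 by four-parameter logistic fit of HitHunter cAMPXS luminescence, read following overnight RT incubation.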

Assay [2] has as its target T2, human GCGR (Homo sapiens, UniProt P47871).
T2 construct: expressed in transfected cells; growth medium holds Blasticidin and Hygromycin
Briefly: cAMP activity assay at the Glucagon receptor (GCGR). The class given is cell-based. As to conditions: for hGCGR/hGLP1R (hTone): ratio of GCGR EC50 to GLP1R EC50. The method in brief:
as §1

Where [3] appears, read: cells expressing human GLP1R, cAMP production, buffer with or without 20% human serum (not stated which), read-out: GLP1R EC50 human.
[4] abbreviates: cells expressing human GCGR, cAMP production, buffer with or without 20% human serum (not stated which), read-out: GCGR EC50 human.
[5] abbreviates: summary statement: EC50 at each of the glucagon and GLP-1 receptors, read-out: EC50 at the GLP-1 receptor.
Setting [6] is: summary statement: EC50 at each of the glucagon and GLP-1 receptors, read-out: EC50 at the glucagon receptor.

Read-outs that look alike come from different tables or passages of the source. Numbered stars: 1 amine (or outer) side, 2 acyl side, 3 side chain; on linkers, the order of the positions; unused ones are H or OH. Square brackets hold non-standard residues; d marks the D form. Side chains are listed from the residue outwards. Peptide text beside a SMILES is read from it. * marks the point of attachment. C20 diacid = O=C(O)CCCCCCCCCCCCCCCCCCC(=O)*; Phe(4-CH2NH2) = NCc1ccc(C[C@H](N)C(=O)O)cc1; C18 diacid = O=C(O)CCCCCCCCCCCCCCCCC(=O)*; C16 diacid = O=C(O)CCCCCCCCCCCCCCC(=O)*; γGlu = O=C(O)[C@H](CCC(=O)[*:2])N[*:1]; Met(O2) = CS(=O)(=O)CC[C@H](N)C(=O)O; AEEA = NCCOCCOCC(=O)O; Aib = CC(C)(N)C(=O)O Where only a bound is given, the exact number is not on record here.

T2 sequence (P47871 26-477): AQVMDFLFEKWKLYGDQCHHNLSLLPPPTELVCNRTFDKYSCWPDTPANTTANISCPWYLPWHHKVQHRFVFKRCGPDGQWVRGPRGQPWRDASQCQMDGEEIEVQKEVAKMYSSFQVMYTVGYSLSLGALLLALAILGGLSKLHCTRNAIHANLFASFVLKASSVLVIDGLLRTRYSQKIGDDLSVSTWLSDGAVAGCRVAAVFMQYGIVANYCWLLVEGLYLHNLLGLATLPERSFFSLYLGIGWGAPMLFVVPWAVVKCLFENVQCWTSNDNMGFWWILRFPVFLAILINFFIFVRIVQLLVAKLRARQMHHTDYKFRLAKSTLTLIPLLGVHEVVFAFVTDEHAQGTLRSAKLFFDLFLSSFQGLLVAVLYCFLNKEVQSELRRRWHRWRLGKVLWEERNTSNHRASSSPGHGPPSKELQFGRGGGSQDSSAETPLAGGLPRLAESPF
T1 sequence (P43220 24-463): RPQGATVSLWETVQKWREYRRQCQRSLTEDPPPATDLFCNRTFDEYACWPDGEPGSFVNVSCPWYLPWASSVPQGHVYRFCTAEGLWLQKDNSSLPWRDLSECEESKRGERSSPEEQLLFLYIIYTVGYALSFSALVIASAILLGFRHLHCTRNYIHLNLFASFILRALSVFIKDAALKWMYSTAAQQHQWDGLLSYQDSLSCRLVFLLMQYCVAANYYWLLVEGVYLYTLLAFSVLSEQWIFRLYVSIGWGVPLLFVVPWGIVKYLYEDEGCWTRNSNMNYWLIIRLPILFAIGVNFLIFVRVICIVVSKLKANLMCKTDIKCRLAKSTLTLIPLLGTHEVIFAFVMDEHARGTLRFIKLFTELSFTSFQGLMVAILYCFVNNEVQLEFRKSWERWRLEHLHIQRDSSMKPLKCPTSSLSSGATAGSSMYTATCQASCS

A word on the EC50: it is the concentration giving half of the maximal effect. Regarding `CC(C)C[C@H](NC(=O)[C@H](CCCCN)NC(=O)[C@H](CCCCN)NC(=O)[C@H](CO)NC(=O)[C@H](Cc1ccc(O)cc1)NC(=O)[C@H](CCC(=O)O)NC(=O)[C@H](CO)NC(=O)[C@@H](NC(=O)[C@H](Cc1ccccc1)NC(=O)[C@@H](NC(=O)CNC(=O)[C@H](CCC(N)=O)NC(=O)C(C)(C)NC(=O)[C@@H](N)Cc1c[nH]cn1)[C@@H](C)O)[C@@H](C)O)C(=O)N[C@@H](CC(=O)O)C(=O)N[C@@H](C)C(=O)N[C@@H](CCCNC(=N)N)C(=O)N[C@@H](C)C(=O)N[C@@H](C)C(=O)N[C@@H](CCC(N)=O)C(=O)N[C@@H](CC(=O)O)C(=O)N[C@@H](Cc1ccccc1)C(=O)N[C@H](C(=O)N[C@@H](CCCCNC(=O)COCCOCCNC(=O)COCCOCCNC(=O)CC[C@H](NC(=O)CCCCCCCCCCCCCCCCC(=O)O)C(=O)O)C(=O)N[C@@H](Cc1c[nH]c2ccccc12)C(=O)N[C@@H](CC(C)C)C(=O)N[C@@H](CCS(C)(=O)=O)C(=O)N[C@@H](CC(=O)O)C(=O)N[C@H](C(N)=O)[C@@H](C)O)C(C)C` [TP699] (H-H[Aib]QGTFTSEYSKKLDARAAQDFVK([AEEA-AEEA-γGlu-C18 diacid])WL[Met(O2)]DT-NH2), the EC50 in assay [1] (setting [3]) and in assay [2] (setting [4]) was over 19.8 nM in each case.
With `CC(C)C[C@H](NC(=O)[C@H](CCCCN)NC(=O)[C@H](CCCCN)NC(=O)[C@H](CO)NC(=O)[C@H](Cc1ccc(O)cc1)NC(=O)[C@H](CCC(=O)O)NC(=O)[C@H](CO)NC(=O)[C@@H](NC(=O)[C@H](Cc1ccccc1)NC(=O)[C@@H](NC(=O)CNC(=O)[C@H](CCC(N)=O)NC(=O)C(C)(C)NC(=O)[C@@H](N)Cc1c[nH]cn1)[C@@H](C)O)[C@@H](C)O)C(=O)N[C@@H](CC(=O)O)C(=O)N[C@@H](C)C(=O)N[C@@H](CCCNC(=N)N)C(=O)N[C@@H](C)C(=O)N[C@@H](C)C(=O)N[C@@H](CCCCNC(=O)COCCOCCNC(=O)COCCOCCNC(=O)CC[C@H](NC(=O)CCCCCCCCCCCCCCCCC(=O)O)C(=O)O)C(=O)N[C@@H](CC(=O)O)C(=O)N[C@@H](Cc1ccccc1)C(=O)N[C@H](C(=O)N[C@@H](CCC(N)=O)C(=O)N[C@@H](Cc1c[nH]c2ccccc12)C(=O)N[C@@H](CC(C)C)C(=O)N[C@@H](CCS(C)(=O)=O)C(=O)N[C@@H](CC(=O)O)C(=O)N[C@H](C(N)=O)[C@@H](C)O)C(C)C` [TP703] (H-H[Aib]QGTFTSEYSKKLDARAAK([AEEA-AEEA-γGlu-C18 diacid])DFVQWL[Met(O2)]DT-NH2), the concentration for a half-maximal effect (EC50) in assay [1] (setting [3]) and in assay [2] (setting [4]) was over 19.8 nM in each case.
`CC(C)C[C@H](NC(=O)[C@H](Cc1ccc(O)cc1)NC(=O)[C@H](CCCCN)NC(=O)[C@H](CO)NC(=O)[C@H](Cc1ccc(O)cc1)NC(=O)[C@H](CC(=O)O)NC(=O)[C@H](CO)NC(=O)[C@@H](NC(=O)[C@H](Cc1ccccc1)NC(=O)[C@@H](NC(=O)CNC(=O)[C@H](CCC(N)=O)NC(=O)C(C)(C)NC(=O)[C@@H](N)Cc1c[nH]cn1)[C@@H](C)O)[C@@H](C)O)C(=O)N[C@@H](CC(=O)O)C(=O)N[C@@H](CCC(=O)O)C(=O)N[C@@H](CCCNC(=N)N)C(=O)N[C@@H](C)C(=O)N[C@@H](C)C(=O)N[C@@H](Cc1ccc(CNC(=O)COCCOCCNC(=O)COCCOCCNC(=O)CC[C@H](NC(=O)CCCCCCCCCCCCCCCCCCC(=O)O)C(=O)O)cc1)C(=O)N[C@@H](CC(=O)O)C(=O)N[C@@H](Cc1ccccc1)C(=O)N[C@H](C(=O)N[C@@H](CCC(N)=O)C(=O)N[C@@H](Cc1c[nH]c2ccccc12)C(=O)N[C@@H](CC(C)C)C(=O)N[C@@H](CC(C)C)C(=O)N[C@@H](CCCCN)C(=O)N[C@H](C(N)=O)[C@@H](C)O)C(C)C` [TP586] (H-H[Aib]QGTFTSDYSKYLDERAA[Phe(4-CH2NH2)]([AEEA-AEEA-γGlu-C20 diacid])DFVQWLLKT-NH2; N-terminus assumed): the EC50 in assay [1] (setting [5]) was under 5 nM; in assay [2] (setting [4]) it was 4.95 nM; in assay [2] (setting [6]), under 5 nM. Moreover, in assay [2], the “hGCGR/hGLP1R (hTone)” value is listed as over 4.0.
In the case of `CC(C)C[C@H](NC(=O)[C@H](Cc1ccc(O)cc1)NC(=O)[C@H](CCCCN)NC(=O)[C@H](CO)NC(=O)[C@H](Cc1ccc(O)cc1)NC(=O)[C@H](CC(=O)O)NC(=O)[C@H](CO)NC(=O)[C@@H](NC(=O)[C@H](Cc1ccccc1)NC(=O)[C@@H](NC(=O)CNC(=O)[C@H](CCC(N)=O)NC(=O)C(C)(C)NC(=O)[C@@H](N)Cc1c[nH]cn1)[C@@H](C)O)[C@@H](C)O)C(=O)N[C@@H](CCC(=O)O)C(=O)N[C@@H](C)C(=O)N[C@@H](CCCNC(=N)N)C(=O)N[C@@H](C)C(=O)N[C@@H](C)C(=O)N[C@@H](CCCCNC(=O)COCCOCCNC(=O)COCCOCCNC(=O)CC[C@H](NC(=O)CCCCCCCCCCCCCCCCC(=O)O)C(=O)O)C(=O)N[C@@H](CC(=O)O)C(=O)N[C@@H](Cc1ccccc1)C(=O)N[C@H](C(=O)N[C@@H](CCC(N)=O)C(=O)N[C@@H](Cc1c[nH]c2ccccc12)C(=O)N[C@@H](CC(C)C)C(=O)N[C@@H](CCS(C)(=O)=O)C(=O)N[C@@H](CC(=O)O)C(=O)N[C@H](C(N)=O)[C@@H](C)O)C(C)C` [TP674] (H-H[Aib]QGTFTSDYSKYLEARAAK([AEEA-AEEA-γGlu-C18 diacid])DFVQWL[Met(O2)]DT-NH2; N-terminus assumed), the results for the EC50 in assay [1] (setting [3]), in assay [1] (setting [5]) and in assay [2] (setting [6]) were 0.45 nM, under 5 nM and under 5 nM, respectively. Also, the “hGCGR/hGLP1R (hTone)” value in assay [2] is given as 2.4.
For `CC(C)C[C@H](NC(=O)[C@H](Cc1ccc(O)cc1)NC(=O)[C@H](CCCCN)NC(=O)[C@H](CO)NC(=O)[C@H](Cc1ccc(O)cc1)NC(=O)[C@H](CC(=O)O)NC(=O)[C@H](CO)NC(=O)[C@@H](NC(=O)[C@H](Cc1ccccc1)NC(=O)[C@@H](NC(=O)CNC(=O)[C@H](CCC(N)=O)NC(=O)C(C)(C)NC(=O)[C@@H](N)Cc1c[nH]cn1)[C@@H](C)O)[C@@H](C)O)C(=O)N[C@@H](CC(=O)O)C(=O)N[C@@H](C)C(=O)N[C@@H](CCCNC(=N)N)C(=O)N[C@@H](C)C(=O)N[C@@H](C)C(=O)N[C@@H](CCC(N)=O)C(=O)N[C@@H](CCC(=O)O)C(=O)N[C@@H](Cc1ccccc1)C(=O)N[C@H](C(=O)N[C@@H](CCCCNC(=O)COCCOCCNC(=O)COCCOCCNC(=O)CC[C@H](NC(=O)CCCCCCCCCCCCCCC(=O)O)C(=O)O)C(=O)N[C@@H](Cc1c[nH]c2ccccc12)C(=O)N[C@@H](CC(C)C)C(=O)N[C@@H](CCS(C)(=O)=O)C(=O)N[C@@H](CC(=O)O)C(=O)N[C@H](C(N)=O)[C@@H](C)O)C(C)C` [TP813] (H-H[Aib]QGTFTSDYSKYLDARAAQEFVK([AEEA-AEEA-γGlu-C16 diacid])WL[Met(O2)]DT-NH2; N-terminus assumed), the values for the EC50 in assay [1] (setting [5]), in assay [2] (setting [4]) and in assay [2] (setting [6]) were under 5 nM, 0.21 nM and under 5 nM, respectively. Besides, the “hGCGR/hGLP1R (hTone)” value in assay [2] is 1.6.

The values above are taken from patent publication US11566057B2, “Long-acting co-agonists of the glucagon and GLP-1 receptors” (Merck Sharp & Dohme Corp., priority 2017, dated 2023).
